Experimental data as given in article PMC8949525, “Essential Elements and Isoflavonoids in the Prevention of Prostate Cancer” (Nutrients, 2022).
Where two headings read alike, the source gives them in different places.

Legend:
[1] = system: S. typhimurium TA1535/pSK1002; conditions: for decrease in 2AA genotoxicity: range over 2AA 5 mg/L and 1 mg/L
Description: (§1) The umu-test detects the induction of bacterial DNA-damage response, the SOS system, in the strain S. typhimurium TA1535/pSK1002. The test strain carries pSK1002 plasmid, which contains the fusion of umuC, encoding one of SOS response proteins, and lacZ genes. The expression of β-galactosidase protein is fully controlled by umuC gene.
(§2) In the present study, the umu-test was performed in the micro-plate format according to the ISO guideline. The β-galactosidase activity was determined by the degree of ONPG cleavage measured as sample absorbance at 420 nm. The extent of SOS system activation was presented as induction ratio (IR), calculated as the ratio of β-galactosidase activity in the presence of the tested compound(s) to that of negative control. […] The optical density at 600 nm was used to describe the bacteria growth. […] Both measurements were performed with Asys UVM340 Hightech microplate spectrophotometer.
The S9 fraction from rat liver was used for metabolic activation of the tested compounds and the model mutagen. […] The P450 cytochrome level in the isolate was evaluated and the aliquots were stored at −80 °C. The S9 reaction mix was prepared as described by Maron and Ames.
(§3) In order to the establish anti-genotoxic potential of tested compounds, their effects on the action of two model genotoxic agents, 4NQO without the metabolic activation with rat liver S9 fraction and 2AA with metabolic activation, were evaluated. […] Subsequently, the modulation of 4NQO and 2AA genotoxicity by the isoflavones, the elements and their mixtures in previously used concentrations was investigated.

[2] = system: LNCaP prostate cancer cells; assay: LNCaP cell proliferation (bisbenzimide H 33258-DNA fluorescence); format: cell-based, human; conditions: isoflavone 10 μM, Zn 0.5, Se 0.03, Cu 0.5, Fe 1.5, Ca 40 μg/mL
Description: LNCaP cells (passage 12–18) were maintained in DMEM medium supplemented with 10% (v/v) FBS, sodium pyruvate (1 mM), penicillin (100 U/mL) and streptomycin (100 μg/mL) at 37 °C in 5% CO2 humidified atmosphere.
The final concentration of DMSO was 0.05%. It must be noted that DMEM contains 1.8 mM of calcium. […] The cells were then gently washed with 0.9% saline and lysed by brief sonication in deionised water. The cell proliferation was quantified by measurement of bisbenzimide H 33,258–DNA complexes fluorescence on Synergy 4 microplate reader with Gen5 software (BioTek Instruments Inc., 100 Tigan St, Winooski, VT 05404, USA).

[3] = system: S. typhimurium TA1535/pSK1002; conditions: for G (growth ratio): −S9, NQO line = genotoxin alone; for anti-genotoxic activity against 4NQO (summary class): cells cover 4NQO […] and 0.05 mg/L, the single + corresponds to […] (Table 2)
Description: as §1, §2, §3

[4] = system: LNCaP cells; assay: LNCaP viability/apoptosis, Hoechst 33258 fluorescent imaging; format: cell-based, human; conditions: 48 h, Hoechst 33258 stain; genistein, Se, Fe; camptothecin 2 µM positive control
Description: The images were recorded with the DS-Fi1 camera connected with Eclipse TS100F inverted microscope with Epi-Fluorescent attachment (DAPI filter) and NIS-Elements BR 2.3 software.

[5] = 2AA 1 mg/L, +S9, daidzein or equol 10 μM with or without mineral (Table 6), 2AA line = genotoxin alone
[6] = 2AA 1 mg/L, +S9, genistein 10 μM and/or mineral added (Table 5), 2AA line = genotoxin alone
[7] = 2AA 5 mg/L, +S9, daidzein or equol 10 μM with or without mineral (Table 6), 2AA line = genotoxin alone
[8] = 2AA 5 mg/L, +S9, genistein 10 μM and/or mineral added (Table 5), 2AA line = genotoxin alone
[9] = 4NQO 0.05 mg/L, genistein 10 μM and/or mineral added (Table 2)
[10] = 4NQO […], genistein 10 μM and/or mineral added (Table 2)
[11] = −S9, isoflavone 10 μM, minerals Zn 0.5, Se 0.03, Cu 0.5, Fe 1.5, Ca 40 μg/mL
[12] = 2AA 1 mg/L, +S9 (second symbol of the cell)
[13] = 2AA 5 mg/L, +S9 (first symbol of the cell)
[14] = inhibition of IR induced by 2AA 1 mg/L, +S9 (Table 5)
[15] = inhibition of IR induced by 2AA 5 mg/L, +S9 (Table 5)

SMILES	G (growth ratio) [1, 6]	G (growth ratio) [1, 8]	LNCaP proliferation, % of control ([2]; 48 h incubation)	G (growth ratio) [3, 9]	G (growth ratio) [3, 10]	anti-genotoxic activity against 4NQO (summary class) [3]	G (growth ratio) [1, 11]	anti-genotoxic activity against 2AA (summary class) [1, 12]	anti-genotoxic activity against 2AA (summary class) [1, 13]	%Anti-Genotox. [1, 14]	%Anti-Genotox. [1, 15]	decrease in 2AA genotoxicity ([1]; +S9)	apoptosis / morphology of LNCaP cells [4]	LNCaP proliferation, % of control ([2]; 24 h incubation)	further results
Nc1ccc2cc3ccccc3cc2c1 [2AA, 2-aminoanthracene, reference compound]	1.00 ± 0.07	1.02 ± 0.08													G (growth ratio) [1, 5]: 0.92 ± 0.10; IR (induction ratio) [1, 5]: 2.37 ± 0.48; IR (induction ratio) [1, 6]: 2.00 ± 0.53; G (growth ratio) [1, 7]: 0.86 ± 0.09; IR (induction ratio) [1, 7]: 2.91 ± 0.54; IR (induction ratio) [1, 8]: 2.17 ± 0.39
[Ca+2].[Cl-].[Cl-] [Ca, calcium chloride]		1.19 ± 0.13	80 ± 9%	1.13 ± 0.08	1.11 ± 0.05	+ (anti-genotoxicty of used compound(s) ≤ 20%)	1.11 ± 0.09								
O=S(=O)([O-])[O-].[Cu+2] [Cu, copper(II)/cupric sulphate]	1.11 ± 0.12		80 ± 14%	0.98 ± 0.10	1.00 ± 0.12			++ ++ (anti-genotoxicty of used compound(s) 21–40%)	++ ++ (anti-genotoxicty of used compound(s) 21–40%)	33%	26%	26–33%			
O=S(=O)([O-])[O-].[Fe+2] [Fe, iron(II) sulphate]	1.10 ± 0.06			1.10 ± 0.10		+ (anti-genotoxicty of used compound(s) ≤ 20%)		++ (anti-genotoxicty of used compound(s) 21–40%)	+ (anti-genotoxicty of used compound(s) ≤ 20%)	21%	14%	14–21%	did not induce apoptosis		G (growth ratio) ([1]; +S9, isoflavone 10 μM, minerals Zn 0.5, Se 0.03, Cu 0.5, Fe 1.5, Ca 40 μg/mL): 0.98 ± 0.10
O=[Se](=O)([O-])[O-].[Na+].[Na+] [Se, sodium selenate]	1.18 ± 0.10	1.17 ± 0.12	84 ± 11%	1.10 ± 0.09	1.11 ± 0.05		1.14 ± 0.11						did not induce apoptosis		
O=S(=O)([O-])[O-].[Zn+2] [Zn, Zinc sulphate]			82 ± 10%												
CC[C@@]1(O)C(=O)OCc2c1cc1n(c2=O)Cc2cc3ccccc3nc2-1 [camptothecin, reference compound]													condensed chromatin or apoptotic nuclei		
O=c1c(-c2ccc(O)cc2)coc2cc(O)ccc12 [dai, daidzein]			70 ± 7%											84 ± 10%	
Oc1ccc([C@H]2COc3cc(O)ccc3C2)cc1 [eq, equol]			60 ± 9%				1.18 ± 0.33	+ (anti-genotoxicty of used compound(s) ≤ 20%)	++ (anti-genotoxicty of used compound(s) 21–40%)			29–34%		81 ± 9%	G (growth ratio) ([3]; 4NQO […], daidzein or equol 10 μM with or without mineral (Table 3)): 0.97 ± 0.26; G (growth ratio) [1, 5]: 0.99 ± 0.11; %Anti-Genotox. ([1]; inhibition of IR induced by 2AA 1 mg/L, +S9 (Table 6)): 34%; %Anti-Genotox. ([1]; inhibition of IR induced by 2AA 5 mg/L, +S9 (Table 6)): 29%
O=c1c(-c2ccc(O)cc2)coc2cc(O)cc(O)c12 [gen, genistein]		1.21 ± 0.17	55 ± 9%		1.12 ± 0.24	+ (anti-genotoxicty of used compound(s) ≤ 20%)	1.28 ± 0.35	++ (anti-genotoxicty of used compound(s) 21–40%)	+ (anti-genotoxicty of used compound(s) ≤ 20%)	32%	17%	17–32%	did not induce apoptosis	72 ± 9%	
